For 28 compounds, IC50 results are on record in patent US11446287B2, “Compounds and methods for EP300 or CBP modulation and indications therefor” (Opna Immuno-Oncology SA, priority 2019, dated 2022).

In the assay the target is T1, Recombinant human EP300 containing the bromodomain (EP300-BD (1040-1161)) (Homo sapiens, UniProt Q09472).
T1 construct: Recombinant human EP300 bromodomain (EP300-BD (1040-1161)); made in house; host or cells: E. coli BL21-CodonPlus (DE3), modified pET vector
T1 sequence (Q09472 1040-1161): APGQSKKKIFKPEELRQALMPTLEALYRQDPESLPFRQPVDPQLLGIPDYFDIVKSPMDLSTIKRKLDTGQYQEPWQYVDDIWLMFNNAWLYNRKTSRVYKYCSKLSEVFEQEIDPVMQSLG
The experiment in a line: EP300 Alphascreen binding assay. A digest of the protocol:
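Displacement of a biotinylated acetyl-K56 histone H3 peptide from the N-His bromodomain construct (1040-1161) measured by AlphaScreen proximity, beads at 7.5 μg/ml final, read 60 min after addition. Protein, peptide and compound first incubated 1 h at room temperature, pH 7.5 HEPES buffer; IC50 by four-parameter logistic fit.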
A general note: Alpha assays give light when donor and acceptor beads are brought close together.
A word on the IC50: it is the midpoint of a concentration-inhibition curve. Take `Cc1noc(C)c1-c1cnc2c(c1)c(-c1ccc(C(=O)O)cc1OC(F)(F)F)cn2[C@H]1CCOC1` [P-0285, (S)-4-(5-(3,5-dimethylisoxazol-4-yl)-1-(tetrahydrofuran-3-yl)-1H-pyrrolo[2,3-b]pyridin-3-yl)-3-(trifluoromethoxy)benzoic acid]: the IC50 was 0.1 to 1000 nM.

Consider `Cc1noc(C)c1-c1cnc2c(c1)c(-c1ccc(C(=O)O)cc1OC(F)(F)F)cn2[C@@H]1CCOC1` [P-0286, (R)-4-(5-(3,5-dimethylisoxazol-4-yl)-1-(tetrahydrofuran-3-yl)-1H-pyrrolo[2,3-b]pyridin-3-yl)-3-(trifluoromethoxy)benzoic acid], for which the IC50 was 0.1 to 1000 nM.

Turning to `CCn1cc(-n2cc(-c3ccc(C(=O)O)cc3OC(F)(F)F)c3cc(-c4c(C)noc4C)cnc32)c(C)n1` [P-0287, 4-(5-(3,5-dimethylisoxazol-4-yl)-1-(1-ethyl-3-methyl-1H-pyrazol-4-yl)-1H-pyrrolo[2,3-b]pyridin-3-yl)-3-(trifluoromethoxy)benzoic acid], the 50% inhibitory concentration (IC50) fell in the range of 0.1 to 1000 nM.

In the case of `Cc1nn(C(F)F)cc1-n1cc(-c2ccc(C(=O)O)cc2OC(F)(F)F)c2cc(-c3c(C)noc3C)cnc21` [P-0288, 4-(1-(1-(difluoromethyl)-3-methyl-1H-pyrazol-4-yl)-5-(3,5-dimethylisoxazol-4-yl)-1H-pyrrolo[2,3-b]pyridin-3-yl)-3-(trifluoromethoxy)benzoic acid], the IC50 fell in the range of 0.1 to 1000 nM.

Take `Cc1noc(C)c1-c1cnc2c(c1)c(-c1ccc(C(=O)O)cc1OC(F)(F)F)cn2-c1cnn(C(F)F)c1C` [P-0289, 4-(1-(1-(difluoromethyl)-5-methyl-1H-pyrazol-4-yl)-5-(3,5-dimethylisoxazol-4-yl)-1H-pyrrolo[2,3-b]pyridin-3-yl)-3-(trifluoromethoxy)benzoic acid]: the IC50 lay in the range of 0.1 to 1000 nM.

Turning to `Cc1noc(C)c1-c1cnc2c(c1)c(-c1ccc(C(=O)O)cc1OC(F)(F)F)cn2C1CCNCC1` [P-0290, 4-(5-(3,5-dimethylisoxazol-4-yl)-1-(piperidin-4-yl)-1H-pyrrolo[2,3-b]pyridin-3-yl)-3-(trifluoromethoxy)benzoic acid], the half-inhibitory concentration (IC50) was 0.1 to 1000 nM.

For the compound `CC(=O)N1CCC(n2cc(-c3ccc(C(=O)O)cc3OC(F)(F)F)c3cc(-c4c(C)noc4C)cnc32)CC1` [P-0291, 4-(1-(1-acetylpiperidin-4-yl)-5-(3,5-dimethylisoxazol-4-yl)-1H-pyrrolo[2,3-b]pyridin-3-yl)-3-(trifluoromethoxy)benzoic acid], the IC50 is 0.1 to 1000 nM.

Regarding `Cc1noc(C)c1-c1cnc2c(c1)c(-c1ccc(C(=O)O)cc1OC(F)(F)F)cn2C1CCN(S(C)(=O)=O)CC1` [P-0292, 4-(5-(3,5-dimethylisoxazol-4-yl)-1-(1-(methylsulfonyl)piperidin-4-yl)-1H-pyrrolo[2,3-b]pyridin-3-yl)-3-(trifluoromethoxy)benzoic acid], the 50% inhibitory concentration (IC50) lay in the range of 0.1 to 1000 nM.

Consider `Cc1noc(C)c1-c1cnc2c(c1)c(-c1ccc(C(=O)O)cc1OC(F)(F)F)cn2-c1ccncc1F` [P-0293, 4-(5-(3,5-dimethylisoxazol-4-yl)-1-(3-fluoropyridin-4-yl)-1H-pyrrolo[2,3-b]pyridin-3-yl)-3-(trifluoromethoxy)benzoic acid], for which the IC50 is 0.1 to 1000 nM.

With `Cc1noc(C)c1-c1cnc2c(c1)c(-c1ccc(C(=O)O)cc1OC(F)(F)F)cn2-c1cnn(CC(C)(C)O)c1` [P-0294, 4-(5-(3,5-dimethylisoxazol-4-yl)-1-(1-(2-hydroxy-2-methylpropyl)-1H-pyrazol-4-yl)-1H-pyrrolo[2,3-b]pyridin-3-yl)-3-(trifluoromethoxy)benzoic acid], the IC50 lay within 0.1 to 1000 nM.

As for `CCOc1cc(C(=O)O)ncc1-c1cn(-c2ccc(F)cc2F)c2ncc(-c3c(C)noc3C)cc12` [P-0295, 5-(1-(2,4-difluorophenyl)-5-(3,5-dimethylisoxazol-4-yl)-1H-pyrrolo[2,3-b]pyridin-3-yl)-4-ethoxypicolinic acid], the IC50 is 0.1 to 1000 nM.

In the case of `CCOc1c(F)c(C(=O)O)c(F)c(OCC)c1-c1cn(-c2ccc(F)cc2F)c2ncc(-c3c(C)noc3C)cc12` [P-0296, 4-(1-(2,4-difluorophenyl)-5-(3,5-dimethylisoxazol-4-yl)-1H-pyrrolo[2,3-b]pyridin-3-yl)-3,5-diethoxy-2,6-difluorobenzoic acid], the IC50 lay in the range of 0.1 to 1000 nM.

Regarding `CCOc1cc(C(=O)O)c(F)c(OCC)c1-c1cn(-c2ccc(F)cc2F)c2ncc(-c3c(C)noc3C)cc12` [P-0297, 4-(1-(2,4-difluorophenyl)-5-(3,5-dimethylisoxazol-4-yl)-1H-pyrrolo[2,3-b]pyridin-3-yl)-3,5-diethoxy-2-fluorobenzoic acid], the IC50 fell in the range of 0.1 to 1000 nM.

Take `Cc1noc(C)c1-c1cnc2c(-c3ccccc3)cn(-c3c(OCC(F)(F)F)cc(C(=O)O)cc3OCC(F)(F)F)c2c1` [P-0298, 4-(6-(3,5-dimethylisoxazol-4-yl)-3-phenyl-1H-pyrrolo[3,2-b]pyridin-1-yl)-3,5-bis(2,2,2-trifluoroethoxy)benzoic acid]: the IC50 is 0.1 to 1000 nM.

In the case of `Cc1noc(C)c1-c1cnc2c(c1)c(-c1ccc(C(=O)O)cc1OC(C)C)cn2-c1cnn(CC(C)(C)O)c1` [P-0299, 4-(5-(3,5-dimethylisoxazol-4-yl)-1-(1-(2-hydroxy-2-methylpropyl)-1H-pyrazol-4-yl)-1H-pyrrolo[2,3-b]pyridin-3-yl)-3-isopropoxybenzoic acid], the IC50 was 0.1 to 1000 nM.

On to `Cc1noc(C)c1-c1cnc2c(c1)c(-c1ccc(C(=O)O)cc1OC(C)C)cn2-c1cnc(N2CCC2)nc1` [P-0300, 4-(1-(2-(azetidin-1-yl)pyrimidin-5-yl)-5-(3,5-dimethylisoxazol-4-yl)-1H-pyrrolo[2,3-b]pyridin-3-yl)-3-isopropoxybenzoic acid], for which the 50% inhibitory concentration (IC50) was 0.1 to 1000 nM.

As to `Cc1noc(C)c1-c1cnc2c(c1)c(-c1ccc(C(=O)O)cc1OC(C)C)cn2[C@H]1CCOC1` [P-0301, (S)-4-(5-(3,5-dimethylisoxazol-4-yl)-1-(tetrahydrofuran-3-yl)-1H-pyrrolo[2,3-b]pyridin-3-yl)-3-isopropoxybenzoic acid], the IC50 fell in the range of 0.1 to 1000 nM.

For the compound `Cc1noc(C)c1-c1cnc2c(c1)c(-c1ccc(S(C)(=O)=O)cc1OC(C)C)cn2-c1ccccc1` [P-0302, 4-(3-(2-isopropoxy-4-(methylsulfonyl)phenyl)-1-phenyl-1H-pyrrolo[2,3-b]pyridin-5-yl)-3,5-dimethylisoxazole], the IC50 is 0.1 to 1000 nM.

On to `CCCn1nc(C(=O)O)c(N)c1-c1cn(-c2ccc(F)cc2F)c2ncc(-c3c(C)noc3C)cc12` [P-0303, 4-amino-5-(1-(2,4-difluorophenyl)-5-(3,5-dimethylisoxazol-4-yl)-1H-pyrrolo[2,3-b]pyridin-3-yl)-1-propyl-1H-pyrazole-3-carboxylic acid], for which the IC50 was 0.1 to 1000 nM.

For `CCCn1nc(C(=O)O)c(NCC)c1-c1cn(-c2ccc(F)cc2F)c2ncc(-c3c(C)noc3C)cc12` [P-0304, 5-(1-(2,4-difluorophenyl)-5-(3,5-dimethylisoxazol-4-yl)-1H-pyrrolo[2,3-b]pyridin-3-yl)-4-(ethylamino)-1-propyl-1H-pyrazole-3-carboxylic acid], the IC50 was 0.1 to 1000 nM.

On to `Cc1nnn(C)c1-c1cnc2c(c1)c(-c1ccc(C(=O)O)cc1OC(F)(F)F)cn2CC/C=C/C1CC1` [P-0305, (E)-4-(1-(4-cyclopropylbut-3-en-1-yl)-5-(1,4-dimethyl-1H-1,2,3-triazol-5-yl)-1H-pyrrolo[2,3-b]pyridin-3-yl)-3-(trifluoromethoxy)benzoic acid], for which the IC50 was 0.1 to 1000 nM.

Turning to `Cc1noc(C)c1-c1cnc2c(c1)c(-c1ccc(C(=O)O)cc1OCC(F)F)cn2-c1ccncc1Cl` [P-0306, 4-(1-(3-chloropyridin-4-yl)-5-(3,5-dimethylisoxazol-4-yl)-1H-pyrrolo[2,3-b]pyridin-3-yl)-3-(2,2-difluoroethoxy)benzoic acid], the IC50 was in the range of 0.1 to 1000 nM.

Take `Cc1noc(C)c1-c1cnc2c(c1)c(-c1ccc(C(=O)O)cc1OC(F)(F)F)cn2-c1ccccc1Cl` [P-0307, 4-(1-(2-chlorophenyl)-5-(3,5-dimethylisoxazol-4-yl)-1H-pyrrolo[2,3-b]pyridin-3-yl)-3-(trifluoromethoxy)benzoic acid]: the IC50 is 0.1 to 1000 nM.

Regarding `Cc1noc(C)c1-c1cnc2c(c1)c(-c1ccc(C(=O)O)cc1OC(F)(F)F)cn2-c1ccccc1C1CC1` [P-0308, 4-(1-(2-cyclopropylphenyl)-5-(3,5-dimethylisoxazol-4-yl)-1H-pyrrolo[2,3-b]pyridin-3-yl)-3-(trifluoromethoxy)benzoic acid], the IC50 lay within 0.1 to 1000 nM.

`Cc1noc(C)c1-c1cnc2c(c1)c(-c1ccc(C(=O)O)cc1OC(F)(F)F)cn2-c1ccccc1C#N` [P-0309, 4-(1-(2-cyanophenyl)-5-(3,5-dimethylisoxazol-4-yl)-1H-pyrrolo[2,3-b]pyridin-3-yl)-3-(trifluoromethoxy)benzoic acid]: the IC50 lay in the range of 0.1 to 1000 nM.

Turning to `Cc1cc(C#N)ccc1-n1cc(-c2ccc(C(=O)O)cc2OC(F)(F)F)c2cc(-c3c(C)noc3C)cnc21` [P-0310, 4-(1-(4-cyano-2-methylphenyl)-5-(3,5-dimethylisoxazol-4-yl)-1H-pyrrolo[2,3-b]pyridin-3-yl)-3-(trifluoromethoxy)benzoic acid], the IC50 is 0.1 to 1000 nM.

On to `COc1ccc(-n2cc(-c3ccc(C(=O)O)cc3OC(F)(F)F)c3cc(-c4c(C)noc4C)cnc32)c(F)c1` [P-0311, 4-(5-(3,5-dimethylisoxazol-4-yl)-1-(2-fluoro-4-methoxyphenyl)-1H-pyrrolo[2,3-b]pyridin-3-yl)-3-(trifluoromethoxy)benzoic acid], for which the IC50 was in the range of 0.1 to 1000 nM.

In the case of `C=C(C)c1ccccc1-n1cc(-c2ccc(C(=O)O)cc2OC(F)(F)F)c2cc(-c3c(C)noc3C)cnc21` [P-0312, 4-(5-(3,5-dimethylisoxazol-4-yl)-1-(2-(prop-1-en-2-yl)phenyl)-1H-pyrrolo[2,3-b]pyridin-3-yl)-3-(trifluoromethoxy)benzoic acid], the IC50 was in the range of 0.1 to 1000 nM.
